Consider one compound from US9102710B2, “Cyclic peptides binding CXCR4 receptor and relative medical and diagnostic uses” (IRCCS-ISTITUTO NAZIONALE PER LO STUDIO E LA CURA DEI TUMORI …, priority 2010, dated 2015).

For data set [1] the following is noted: cited from earlier work.
Data set [2] relates to phosphorylation of ERK 1,2. Nature of the data set: p-ERK induction by Immunoblotting in PES43 cells. The format is cell-based, human. The note with it: AMD3100 1 uM, SDF-1α 100 ng/ml. On the procedure:
CXCL12 activates the phosphorylation of ERK and this phosphorylation is inhibited by both AMD3100 (1 uM), and by the peptides css:[C-WHR-C] (10 uM), css:[C-FFR-C] (10 uM), css:[C-FFR-C]-Nam (10 uM), css:[C-WYR-C]-AR (10 uM), RA-css:[C-RFF-C] (10 uM), RA-css:[C-RHW-C] (10 uM), abb:[β-Ala-WHR-β-Ala] (10 uM).
The activation of CXCR4 induces the transduction path of MAPK through the phosphorylation of ERK 1,2. For this reason, the modulation of the induction of P-ERK was evaluated in relation to treatment with SDF-1α (100 ng/ml), peptides (10 uM) and AMD3100 (1 uM).
The cells were deprived of serum for 24 hours and then stimulated with SDF-1α.
The human melanoma cells, PES43, grown on 100 mm plates, were treated with SDF-1α, for 2-5-7-10 minutes. The cells were then mechanically detached, lysed in a specific buffer to which protease inhibitors and phosphatase inhibitors were added (120 mM NaCl, 40 mM Hepes, 5 mM MgCl2, 1 mM EGTA, 0.5 mM EDTA, 0.6% Triton, 10% glycerol, […], 1 mM Na3VO4, 1 mM NaF). The cell lysates thus obtained (50 μg of total proteins) were first denatured with Laemmli 4× and then separated with SDS-PAGE on gel at 10% in the presence of a running buffer (Tris Base, Glycine, SDS); the proteins were subsequently transferred onto a nitrocellulose membrane in incubated with primary antibodies specific for the following proteins: phospho-ERK 1/2, total ERK. […]

For a further data set, the target named is T1, CXCR4 receptor (Homo sapiens, UniProt P61073).
T1 construct: a leukaemia T CD4+ cell line with a high expression of the CXCR4 receptor; endogenous in cells; host or cells: CCRF-CEM (printed also CCFR-CEM) leukaemia T CD4+ cells
T1 sequence (P61073 whole entry): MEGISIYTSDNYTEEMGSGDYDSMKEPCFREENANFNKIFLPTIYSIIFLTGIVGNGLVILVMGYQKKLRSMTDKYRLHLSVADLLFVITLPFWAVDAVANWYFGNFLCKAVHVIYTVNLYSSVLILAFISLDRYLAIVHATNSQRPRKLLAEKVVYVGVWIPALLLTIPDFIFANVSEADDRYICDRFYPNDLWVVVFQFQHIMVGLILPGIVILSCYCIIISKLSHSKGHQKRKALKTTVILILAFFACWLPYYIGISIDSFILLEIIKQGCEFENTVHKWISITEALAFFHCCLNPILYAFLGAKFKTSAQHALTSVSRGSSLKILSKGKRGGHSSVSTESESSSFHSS
In words: Cytofluorimetric determination of Ca2+ release in CCFR-CEM cells after stimulation with SDF-1α. The note with it: compound 10 uM, read-out: reduction (inhibition) of Calcium release induced by SDF-1α. The format is cell-based. From the text:
For all the subsequent in vitro examples, two cell lines were used: CCFR-CEM and PES 43; the first is a leukaemia T CD4+ cell line with a high expression of the CXCR4 receptor, grown in a RPMI 1640 culture medium enriched with 10% of Fetal Bovine Serum (FBS) inactivated with heat and 1% of L-Glutamine; the second is a cell line deriving from melanoma lung metastasis called PES43 with a high expression of the CXCR4 receptor, grown in Iscove's Modified Dulbecco's Medium (IMDM) supplemented with 10% of Fetal Bovine Serum (FBS) inactivated with heat and 1% of Penicillin-Streptomycin.
The determination of the release of intracellular Calcium was effected in CCFR-CEM cells. The cells (500,000 cells) were washed with PBS, resuspended in 1 ml of Loading Buffer (PBS 1×, 1 mM CaCl2, 1 mM MgCl2, 1% FBS inactivated with heat) at 37° C., and incubated with 4 ul of the calcium tracer FLUO3-AM (1 mg/ml; Sigma) and 4 ul of Pluronic Acid F-127 (1 mg/ml in 2% of DMSO; Invitrogen) in the dark for 30′ at 37° C. under stirring. In order to remove the excess FLUO3-AM, 3 ml of Loading Buffer are added, this is followed by a centrifugation for 5′ at 1,000-1,200 rpm. The pellet thus obtained is resuspended in 1 ml of Loading Buffer. […]

For the compound `c1cc(CN2CCCNCCNCCCNCC2)ccc1CN1CCCNCCNCCCNCC1` [AMD3100, 1,19-[1,4-phenylenebis(methylene)]-bis-1,4,8,11-azatetradecane], in data set [1] (healthy volunteers, Phase 1), the “time of peak of increase in white blood cell series after administration” value was 6 h. In addition, in data set [1] (previous studies [4]), the bioavailability result is recorded as “poor”; the toxicity result was “hepatic, cardiac and cerebellar toxicity”. Moreover, the “inhibition of SDF-1α-activated phosphorylation of ERK” value in data set [2] is “inhibited”. For the same compound, the inhibition at 10 µM on CXCR4 receptor was determined as 70%.
